# According to paper PMC3519477, “Structures of the Human Poly (ADP-Ribose) Glycohydrolase Catalytic Domain Confirm Catalytic Mechanism and Explain Inhibition by ADP-HPD Derivatives” (PLoS ONE, 2012):
# Where “and” joins values, the source holds several entries; their conditions need not be identical. Equal values may be shown once. Read-outs that look alike come from different tables or passages of the source.
# Experiments:
# [1] = target: T1, hPARG (full-length recombinant hPARG(1–976)-6His) (Homo sapiens, UniProt Q86W56); experiment: PARG activity HTRF assay (PAR-PARP1 hydrolysis); type: biochemical; conditions: for IC50: hPARG
# T1 construct: direct expression of hPARG(1–976) with a C-terminal hexahistidine tag; made in house; host or cells: E. coli BL21 (DE3) GOLD
# T1 sequence (Q86W56 whole entry): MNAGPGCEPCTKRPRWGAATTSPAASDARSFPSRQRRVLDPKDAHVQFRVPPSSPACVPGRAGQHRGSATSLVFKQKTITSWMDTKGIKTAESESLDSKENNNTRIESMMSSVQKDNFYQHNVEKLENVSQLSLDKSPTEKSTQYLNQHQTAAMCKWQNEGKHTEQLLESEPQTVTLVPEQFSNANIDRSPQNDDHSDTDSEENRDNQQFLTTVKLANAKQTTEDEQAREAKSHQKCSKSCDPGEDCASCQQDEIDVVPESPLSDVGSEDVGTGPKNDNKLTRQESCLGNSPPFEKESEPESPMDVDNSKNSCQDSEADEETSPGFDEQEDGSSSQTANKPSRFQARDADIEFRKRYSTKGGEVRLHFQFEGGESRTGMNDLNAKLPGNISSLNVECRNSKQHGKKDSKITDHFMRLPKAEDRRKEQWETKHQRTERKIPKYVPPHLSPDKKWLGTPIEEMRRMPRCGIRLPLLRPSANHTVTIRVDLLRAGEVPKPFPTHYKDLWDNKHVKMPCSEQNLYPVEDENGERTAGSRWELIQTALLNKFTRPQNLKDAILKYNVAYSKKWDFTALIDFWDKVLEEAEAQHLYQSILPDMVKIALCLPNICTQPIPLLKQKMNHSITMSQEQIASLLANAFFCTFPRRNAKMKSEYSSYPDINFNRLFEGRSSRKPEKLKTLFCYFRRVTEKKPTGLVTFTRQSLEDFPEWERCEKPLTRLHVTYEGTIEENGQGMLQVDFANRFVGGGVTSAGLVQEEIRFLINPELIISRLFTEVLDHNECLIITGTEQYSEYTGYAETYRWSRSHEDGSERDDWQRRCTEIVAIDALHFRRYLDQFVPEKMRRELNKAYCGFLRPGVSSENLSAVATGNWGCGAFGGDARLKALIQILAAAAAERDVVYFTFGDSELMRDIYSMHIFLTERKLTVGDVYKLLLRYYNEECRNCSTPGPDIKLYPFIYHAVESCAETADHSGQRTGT
# Experimental: (§1) PARG activity was assessed using an HTRF assay which will be described in detail elsewhere (Bennett et al, manuscript in preparation). […] Following this incubation, biotinylated NAD^+ at a molar ratio to PARylated PARP1 of 0.7∶1 was added and incubation continued for 5 minutes. The reaction was terminated by addition of a PARP1-specific inhibitor to a final concentration of 4.7 µM. The solution was dialysed overnight to remove excess biotinylated NAD^+ and compound, and stored at −80°C. PARG activity was measured in a 384-well format HTRF assay using the biotin-labelled PARylated PARP1 as a substrate. Residual biotinylated PARylated PARP1 was detected by addition of a detection mix containing anti-6His–XL antibody (Cisbio) and streptavidin europium cryptate (Cisbio), and then monitoring the ratio of emission at 665 nm to 612 nm upon excitation at 340 nm.
# Inhibition by ADP-HPD was measured using serial dilutions over the range 100 µM to 100 pM compound from a 1 mM stock in water. Assays contained 30 pM purified recombinant PARG and 9.67 nM PAR-PARP1 in a final volume of 9 µL assay buffer (50 mM MOPS pH 7.4, 0.1 mg/mL BSA, 3 mM EDTA, 0.4 mM EGTA, 1 mM DTT, 0.01% v/v Tween20, 50 mM KCl). Reactions were allowed to proceed for 8 minutes prior to the addition of 3 µL detection reagents (50 mM MOPS pH 7.4, 0.1 mg/mL BSA, 0.1 M Potassium Fluoride, 14 nM anti-6HIS-XL antibody, 0.75 nM Streptavidin Europium Cryptate). IC50s were calculated using a time-point of 1.5 hours from the addition of detection reagents.
# Here, 17.5 nL of ADP-HPD ([…]) or OA-ADP-HPD (21.43 mM in DMSO) were dispensed by an ECHO555 (Labcyte Inc.) into Greiner white 1536-well plates over the specified range: ADP-HPD (100 µM to 100 pM) and OA-ADP-HPD (500 µM to 30 nM).
# ADP-HPD and OA-ADP-HPD inhibition data were visualised in Prism (GraphPad), and IC50s derived from a non-linear regression analysis of the values from three separate experiments (run in triplicate) fit to a sigmoidal dose-response curve.
# [2] = Cell activity of PARG inhibitor (data not shown); type: cell-based
# [3] = target: T2, hPARG4 (hPARG(448–976)) (Homo sapiens, UniProt Q86W56); experiment: Isothermal titration calorimetry; type: binding; conditions: 25°C; for Kd: read-out: KD (ITC); for ΔG / ΔH / ΔS: ITC
# T2 construct: a codon optimized gene encoding human PARG(448–976) was synthesized by GeneArt; 6His (TEV-cleavable) (N, cleaved yes); made in house; host or cells: E. coli BL21 (DE3) GOLD
# T2 sequence (Q86W56 448-976): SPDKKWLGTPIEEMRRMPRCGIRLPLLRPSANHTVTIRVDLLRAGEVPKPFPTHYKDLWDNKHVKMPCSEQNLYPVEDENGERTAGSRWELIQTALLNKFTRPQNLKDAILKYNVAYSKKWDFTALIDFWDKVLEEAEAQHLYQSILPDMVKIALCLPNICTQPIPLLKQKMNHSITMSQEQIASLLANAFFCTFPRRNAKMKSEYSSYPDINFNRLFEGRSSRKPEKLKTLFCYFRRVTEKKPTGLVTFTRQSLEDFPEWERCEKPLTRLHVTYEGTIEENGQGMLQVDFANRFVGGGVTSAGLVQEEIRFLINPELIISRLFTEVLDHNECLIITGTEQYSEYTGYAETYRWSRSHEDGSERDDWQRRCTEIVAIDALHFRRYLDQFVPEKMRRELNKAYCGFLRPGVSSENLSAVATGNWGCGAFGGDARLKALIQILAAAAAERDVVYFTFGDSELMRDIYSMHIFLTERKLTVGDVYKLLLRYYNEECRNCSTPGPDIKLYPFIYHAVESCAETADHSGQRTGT
# Experimental: (§2) This was carried out using an iTC200 instrument (Microcal, GE Healthcare, Northampton, MA) at 25°C in the following buffer: 20 mM HEPES pH 7, 150 mM NaCl, 2 mM DTT, 0.02% NaN3. Protein concentrations were typically 30 µM in the cell with ligand concentrations of at least 10 fold this concentration in the syringe. Typical injection protocols of 19×2 µL injections, spaced at 2 or 3 minute intervals were used. Curves were fitted by non-linear regression analysis using a one-site binding model provided by MicroCal Origin software (version 7).
# [4] = target: T3, hPARG4 (Homo sapiens, UniProt Q86W56); experiment: SPR competition experiments against saturating ADP-HPD; type: binding
# T3 construct: a codon optimized gene encoding human PARG(448–976) was synthesized by GeneArt; 6His (TEV-cleavable) (N, cleaved yes); made in house; host or cells: E. coli BL21 (DE3) GOLD
# T3 sequence (Q86W56 448-976): as above
# Excerpt: The ADPR and ADP-HPD complex structures superpose almost exactly (r.m.s. deviation 0.14 Å over all Cα; 0.47 Å over all atoms within the binding pocket (MOE, Chemical Computing Group)). ADPR and ADP-HPD engage in equivalent interactions, with the exception of loss of an H-bond between the 1″-OH and Glu756 as this OH is not present in ADP-HPD. […] We speculate that the bound conformation of ADP-HPD is stabilised relative to ADPR by dipole-dipole interactions between the HPD NH2 ^+ and a negatively charged α-phosphate oxygen and/or the oxygen linking the β-phosphate to ribose” (4.1 Å and 2.9 Å separation respectively, Figure 4b). In addition, the α-phosphate oxygen H-bonding network may be strengthened in the ADP-HPD complex by the charged interaction with the pyrrolidine NH2 ^+. This oxygen accepts H-bonds from the backbone NH of Gln754 and a conserved water molecule, and is shielded from solvent by Val753. Binding of ADP-HPD is primarily enthalpy driven (Table 1).
# Studies of PARG inhibitor binding were conducted at 25°C. Samples were prepared as 5 fold dilutions in the experimental running buffer (20 mM HEPES pH 7, 150 mM NaCl, 2 mM DTT, 0.005% P20, 0.02% NaN3 with 5% DMSO). Surface regeneration was achieved using dissociation for a time period allowing the response to return to baseline. Control injections of a fixed, saturating ADP-HPD concentration of 20 µM were interspersed with injections of compound to allow monitoring of the functionality of the protein surface. To calculate affinities, SPR equilibrium binding data, consisting of Req values from 8–10 point concentration series, were analyzed by fitting a simple 1∶1 binding model to yield Rmax and Kd values using non-linear regression analysis in Grafit 6 (Erithacus Software).
# [5] = target: bPARG; parameters: method as in PMID 7830282; conditions: cited from earlier work
# [6] = tested on: TcPARG Glu115Ala mutant; parameters: method as in supplemental 4 (Slade et al., 2011); conditions: ref supplemental 4 (Slade et al., 2011); cited from earlier work
# [7] = tested on: TcPARG Glu114Ala mutant; parameters: method as in supplemental 4 (Slade et al., 2011); conditions: ref supplemental 4 (Slade et al., 2011); cited from earlier work
# [8] = target: T2, hPARG4 (hPARG(448–976)); experiment: PARG activity HTRF assay (PAR-PARP1 hydrolysis); type: biochemical; conditions: 9 µL HTRF
# Experimental: as §1
# (§3) Inhibition by ADP-HPD was measured using serial dilutions over the range 100 µM to 100 pM compound from a 1 mM stock in water. Assays contained 30 pM purified recombinant PARG and 9.67 nM PAR-PARP1 in a final volume of 9 µL assay buffer (50 mM MOPS pH 7.4, 0.1 mg/mL BSA, 3 mM EDTA, 0.4 mM EGTA, 1 mM DTT, 0.01% v/v Tween20, 50 mM KCl). […] IC50s were calculated using a time-point of 1.5 hours from the addition of detection reagents. […]
# [9] = target: T4, hPARG26 (hPARG(448–976 [K616A, Q617A, K618A, E688A, K689A & K690A])) (Homo sapiens, UniProt Q86W56, E688A/K616A/K618A/K689A/K690A/Q617A); experiment: PARG activity HTRF assay (PAR-PARP1 hydrolysis); type: biochemical; conditions: 9 µL HTRF
# T4 construct: a codon optimized gene encoding human PARG(448–976 [K616A, Q617A, K618A, E688A, K689A, K690A]); 6His (TEV-cleavable) (N, cleaved yes); made in house; host or cells: E. coli BL21 (DE3) GOLD (shake flasks, as for hPARG4)
# T4 sequence (Q86W56 448-976 K616A/Q617A/K618A/E688A/K689A/K690A): as the sequence (Q86W56 448-976) above, with K169A, Q170A, K171A, E241A, K242A, K243A counted along it
# Experimental: as §1, §3
# [10] = target: T5, hPARG (full-length) (Homo sapiens, UniProt Q86W56); experiment: Isothermal titration calorimetry; type: binding; conditions: 25°C
# T5 construct: direct expression of hPARG(1–976) with a C-terminal hexahistidine tag; made in house; host or cells: E. coli BL21 (DE3) GOLD
# T5 sequence (Q86W56 whole entry): as the sequence (Q86W56 whole entry) above
# Experimental: as §2
# [11] = tested on: bovine PARG (bPARG), purified full-length protein; parameters: method as in PMID 13678410; conditions: read-out: IC50, literature value; cited from earlier work
# [12] = target: T5, hPARG (full-length); experiment: SPR binding to immobilised PARG, steady state fits; conditions: 25°C, steady state fit
# Experimental: (§4) Biosensor (SPR) analyses were conducted using a BIAcore 3000 or BIAcore S51 instrument. Research grade CM5 chips and coupling reagents (N-ethyl-N′-dimethylaminopropylcarbodiimide, EDC; N-hydroxysuccinimide, NHS; and 1 M ethanolamine HCl, pH 8.5) were purchased from BIAcore (GE Healthcare, Northampton, MA).
# (§5) A CM5 chip was docked into the instrument, primed 5 times with filtered and degassed running buffer containing 50 mM HEPES pH 7, followed by preconditioning at 100 µL/min using two consecutive aliquots of 50 µL each of 10 mM HCl, 50 mM NaOH, 0.1% (w/v) SDS, 0.085% (v/v) H3PO4. PARG surfaces were prepared by standard amine coupling via exposed amines on PARG. Immobilisations were conducted at 25°C in 50 mM HEPES at a flow rate of 5 µL/min. Flow cells were activated for 7 min by injecting a 35 µL mixture of 50 mM NHS: 200 mM EDC. Subsequently, 35 µL of 100 µg/mL PARG was injected for 7 min, followed by a 35 µL injection of ethanolamine. Typical immobilisation levels ranged from 3000 to 5000 resonance units (RU). Nonderivatised flow cells served as reference surfaces.
# (§6) Studies of PARG inhibitor binding were conducted at 25°C. […] To calculate affinities, SPR equilibrium binding data, consisting of Req values from 8–10 point concentration series, were analyzed by fitting a simple 1∶1 binding model to yield Rmax and Kd values using non-linear regression analysis in Grafit 6 (Erithacus Software).
# [13] = target: T2, hPARG4 (hPARG(448–976)); experiment: SPR binding to immobilised PARG, steady state fits; conditions: 25°C, steady state fit
# Experimental: as §4, §5, §6
# [14] = tested on: bovine PARG (bPARG), recombinant catalytic domain; parameters: method as in PMID 13678410; conditions: recombinant catalytic domain of bPARG; read-out: IC50, literature value; cited from earlier work
smiles,measurement,setting,value
"CCCCCCCCNc1nc2c(N)ncnc2n1[C@@H]1O[C@H](COP(=O)(O)OP(=O)(O)OC[C@H]2NC[C@H](O)[C@@H]2O)[C@@H](O)[C@H]1O [OA-ADP-HPD, 8-n-octyl-amino-ADP-HPD]",completeness of inhibition of hPARG activity in vitro,"[1]; compared with ADP-HPD, used as maximally-inhibited control in HTS assay",more complete inhibitor
same,IC50,"[1]; HTS campaign format, 3 µL reaction, 1536-well, 10 min, read-out: IC50",16300 ± 1100 nM
same,cell activity,[2],unable to show cell activity
same,Kd,[3],800 ± 100 nM
same,ΔG,[3],-8.34 ± 0.072 kcal/mol
same,ΔH,[3],-12.1 ± 0.335 kcal/mol
same,ΔS,[3],−52.9±4.7 J/mol/K
Nc1ncnc2c1ncn2[C@@H]1O[C@H](COP(=O)(O)O)[C@@H](O)[C@H]1O [AMP],drop-off in affinity upon removal of the β-phosphate-ribose moiety,[4]; AMP compared with ADPR,10 fold
same,Kd,"[4]; same competition-based method as for ADPR, n = 1, read-out: approximate KD (SPR competition)",~380000 nM
"Nc1ncnc2c1ncn2C1OC(COP(=O)(O)OP(=O)(O)OCC2OC(O)C(O)C2O)C(O)C1O (stereo not shown) [ADPR, ADP-ribose]",Kd,"[5]; read-out: KD, reported value for bPARG",120000 nM
same,effect of mutation on affinity,[6],No detectable activity; no effect on ADPR affinity
same,decrease in affinity versus wild-type,[7],No detectable activity; 10-fold decrease in ADPR affinity
same,weaker affinity relative to ADP-HPD,"[4]; binding to hPARG, compared with ADP-HPD",~1000 fold
same,Kd,"[4]; hPARG4-ADP-HPD complex formed in situ, increasing concentrations of compound, data not shown, read-out: KD (SPR competition)",~40000 nM
"Nc1ncnc2c1ncn2C1OC(COP(=O)(O)OP(=O)(O)OCC2NCC(O)C2O)C(O)C1O (stereo not shown) [ADP-HPD, adenosine 5′-diphosphate (hydroxymethyl)pyrrolidinediol]",Kd,"[5]; read-out: KD, literature values for bPARG",50 to 80 nM
same,IC50,[8],970 ± 240 nM
same,IC50,[9],1100 ± 220 nM
same,IC50,"[1]; 384-well HTRF, 9 µL, 30 pM PARG, 9.67 nM PAR-PARP1, 8 min reaction, read-out: IC50",3000 nM and 3100 nM
same,IC50,"[1]; conditions of the High Throughput Screening campaign, read-out: IC50 under HTS campaign conditions",~600 nM
same,Kd,"[10]; values heavily influenced by base-line noise (Figure S2), read-out: KD (ITC)",416 ± 89.9 nM
same,ΔG,[10]; ITC,-8.7 ± 0.12 kcal/mol
same,ΔH,[10]; ITC,-7.36 ± 0.0096 kcal/mol
same,ΔS,[10]; ITC,+18.8±1.7 J/mol/K
same,Kd,[3],132 ± 14 nM
same,ΔG,[3],-9.42 ± 0.072 kcal/mol
same,ΔH,[3],-13.4 ± 0.096 kcal/mol
same,ΔS,[3],−56.1±0.5 J/mol/K
same,IC50,[11],330 nM
same,Kd,[12],44.8 ± 2.9 nM
same,Kd,[13],64.3 ± 2.6 nM
same,IC50,[14],1000 to 1400 nM
